In patent publication US8785468B2, “Phenylalanine amide derivatives useful for treating insulin-related diseases and conditions” (Amgen Inc., priority 2009, dated 2014):
Structures can show the parent of a compound that is named as a salt.

Molecular target: T1, human receptor found in pancreatic islet cells (Homo sapiens, UniProt Q7Z601)
T1 sequence (Q7Z601 1-462): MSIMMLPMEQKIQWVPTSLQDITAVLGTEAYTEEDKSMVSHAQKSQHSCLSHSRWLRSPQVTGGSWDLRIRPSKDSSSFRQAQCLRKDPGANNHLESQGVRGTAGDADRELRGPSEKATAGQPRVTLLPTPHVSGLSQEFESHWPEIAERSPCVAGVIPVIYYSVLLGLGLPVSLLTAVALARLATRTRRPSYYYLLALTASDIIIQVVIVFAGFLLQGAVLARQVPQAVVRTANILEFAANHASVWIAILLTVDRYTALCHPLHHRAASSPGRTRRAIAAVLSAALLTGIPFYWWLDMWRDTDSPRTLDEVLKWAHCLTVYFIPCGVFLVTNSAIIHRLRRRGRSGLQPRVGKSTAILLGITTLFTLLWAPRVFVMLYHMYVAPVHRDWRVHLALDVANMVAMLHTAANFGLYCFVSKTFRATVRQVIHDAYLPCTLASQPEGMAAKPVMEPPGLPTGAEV
Test: Activation of intracellular IP3 signaling in transfected cells (Activation Assay)
Format: cell-based
Settings: calculated from IP3 concentration measurements in cells transfected with the human receptor
Experimental: Table 12 provides exemplary compounds that were prepared and assessed, following protocols known to those of skilled in the art, for activation of intracellular inositol trisphosphate (IP3) signaling pathways that lead to elevation of intracellular calcium concentration. EC50 values provided in Table 12 were calculated from IP3 concentration measurements in cells transfected with a human receptor found in pancreatic islet cells, inter alia.

Row | EC50 [nM] | Structure (SMILES)
1 | 100 to 1000 | N#Cc1cc(-c2ccncc2)cc2c1CCN2C(=O)[C@H](Cc1ccccc1)NCc1cscn1 [Example 53, (S)-1-(3-Phenyl-2-(thiazol-4-ylmethylamino)propanoyl)-6-(pyridin-4-yl)indoline-4-carbonitrile]
2 | 50 to 100 | CNc1cc(-c2nnc(NC(=O)[C@H](Cc3ccc(F)cc3)NCc3cscn3)s2)ccn1 [Example 8.2, (2S)-3-(4-fluorophenyl)-N-(5-(2-(methylamine)pyridine-4-yl)-1,3,4-thiadiazol-2-yl)-2-(thiazol-4-ylmethylamino)propanamide]
3 | 1000 to 10000 | CCn1nc(-c2ccncc2)cc1NC(=O)[C@H](Cc1ccccc1)N[C@H](C)C(=O)O [Example 20.3, (R)-2-((S)-1-(1-Ethyl-3-(pyridin-4-yl)-1H-pyrazol-5-ylamino)-1-oxo-3-phenylpropan-2-ylamino)propanoic acid]
4 | 50 to 100 | O=C(Nc1cc(-c2ccncc2)n[nH]1)[C@H](Cc1ccccc1)NCc1cscn1 [Example 7, (S)-3-Phenyl-N-(3-(pyridin-4-yl)-1H-pyrazol-5-yl)-2-(thiazol-4-ylmethylamino)propanamide]
5 | 100 to 1000 | O=C(Nc1cncc(-c2ccn[nH]2)c1)[C@H](Cc1ccccc1)NCc1cscn1 [Example 6, (2S)—N-(5-(1H-Pyrazol-5-yl)pyridin-3-yl)-3-phenyl-2-(thiazol-4-ylmethylamino)propanamide]
6 | 1000 to 10000 | O=C(Nc1cccc(-c2ccncc2)c1)[C@@H](Cc1ccccc1)NCc1cncs1 [Example 34.6, (R)-3-Phenyl-N-(3-(pyridin-4-yl)phenyl)-2-(thiazol-5-ylmethylamino)propanamide trifluoroacetate]
7 | 100 to 1000 | O=C(Nc1csc(-c2ccncc2)n1)[C@H](Cc1ccccc1)NCc1cscn1 [Example 4, (S)-3-Phenyl-N-(2-(pyridin-4-yl)thiazol-4-yl)-2-(thiazol-4-ylmethylamino)propanamide]
8 | 100 to 1000 | COc1cc(NC(=O)[C@H](Cc2ccccc2)NCc2cscn2)cc(-c2ccnc(C)c2)n1 [Example 41.6, (2S)—N-(2-Methoxy-6-(2-methylpyridin-4-yl)pyridin-4-yl)-3-phenyl-2-(thiazol-4-ylmethylamino)propanamide]
9 | 100 to 1000 | Cn1cc(-c2cccc(NC(=O)[C@H](Cc3ccccc3)NCc3cscn3)c2)cn1 [Example 27, (2S)—N-(3-(1-Methyl-1H-pyrazol-4-yl)phenyl)-3-phenyl-2-(thiazol-4-ylmethylamino)propanamide]
10 | 50 to 100 | CCC(N[C@@H](Cc1ccccc1)C(=O)Nc1cccc(-c2ccncc2)c1)c1ccccn1 (stereo partly drawn) [Example 34.3, (2S)-3-Phenyl-2-(1-(pyridin-2-yl)propylamino)-N-(3-(pyridin-4-yl)phenyl)propanamide]
11 | 50 to 100 | COc1ccc(NC(=O)[C@H](Cc2ccccc2)NCc2cscn2)cc1-c1ccncc1 [Example 37, (S)—N-(4-Methoxy-3-(pyridin-4-yl)phenyl)-3-phenyl-2-(thiazol-4-ylmethylamino)propanamide]
12 | 100 to 1000 | CC(N[C@@H](Cc1ccccc1)C(=O)Nc1cccc(-c2ccncc2)c1)c1ccccn1 (stereo partly drawn) [Example 34.2, (2S)-3-Phenyl-2-(1-(pyridin-2-yl)ethylamino)-N-(3-(pyridin-4-yl)phenyl)propanamide]
13 | < 50 | Cc1cc(-c2cc(-c3n[nH]c(=S)o3)c3c(c2)N(C(=O)[C@H](Cc2ccccc2)NCc2cscn2)CC3)ccn1 [Example 66, (2S)-1-(6-(2-Methylpyridin-4-yl)-4-(5-thioxo-4,5-dihydro-1,3,4-oxadiazol-2-yl)indolin-1-yl)-3-phenyl-2-(thiazol-4-ylmethylamino)propan-1-one]
14 | 100 to 1000 | O=C([C@H](Cc1ccccc1)NCc1cscn1)N1CCc2ccc(-c3ccc(F)cc3)cc21 [Example 85, (S)-1-[6-(4-Fluoro-phenyl)-2,3-dihydro-indol-1-yl]-3-phenyl-2-[(thiazol-4-ylmethyl)-amino]-propan-1-one Trifluoroacetate]
15 | 100 to 1000 | CNc1nccc(-c2cc(NC(=O)[C@H](Cc3ccc(F)cc3)NCc3cscn3)n(C)n2)n1 [Example 9, (2S)-3-(4-fluorophenyl)-N-(1-methyl-3-(2-(methylamino)pyrimidin-4-yl)-1H-pyrazol-5-yl)-2-(thiazol-4-ylmethylamino)propanamide]
16 | 50 to 100 | O=C(Nc1cnc(-c2ccncc2)s1)[C@H](Cc1ccc(F)cc1)NCc1cscn1 [Example 5.2, (S)-3-(4-Fluorophenyl)-N-(2-(pyridin-4-yl)thiazol-5-yl)-2-(thiazol-4-ylmethylamino)propanamide]
17 | 50 to 100 | O=C(Nc1nnc(-c2ccncc2)s1)[C@H](Cc1ccccc1)NCc1cscn1 [Example 1.5, (S)-3-phenyl-N-(5-(pyridin-4-yl)-1,3,4-thiadiazol-2-yl)-2-(thiazol-4-ylmethylamino)propanamide]
18 | 100 to 1000 | O=C(Nc1cccc(-c2cn[nH]c2)c1)[C@H](Cc1ccccc1)NCc1cscn1 [Example 33, (2S)—N-(3-(1H-Pyrazol-4-yl)phenyl)-3-phenyl-2-(thiazol-4-ylmethylamino)propanamide]

Row | EC50 [nM] | Structure (SMILES)
19 | 100 to 1000 | CNc1cc(-c2cc(NC(=O)[C@@H](N)Cc3ccc(F)cc3)n(C(C)C)n2)ccn1 [Example 43.1, (2S)-2-Amino-3-(4-fluorophenyl)-N-(1-isopropyl-3-(2-(methylamino)pyridin-4-yl)-1H-pyrazol-5-yl)propanamide]
20 | 100 to 1000 | COC(=O)c1cc(-c2ccncc2)cc2c1CCN2C(=O)[C@@H](N)Cc1ccccc1 [Example 54.1, (S)-Methyl 1-(2-amino-3-phenylpropanoyl)-6-(pyridin-4-yl)indoline-4-carboxylate]
21 | 1000 to 10000 | O=C(Nc1cccc(-c2ccncc2)c1)[C@H](Cc1ccccc1)NCC1CCOC1 (stereo partly drawn) [Example 34.11, (2S)-3-Phenyl-N-(3-(pyridin-4-yl)phenyl)-2-((tetrahydrofuran-3-yl)methylamino)propanamide TFA salt]
22 | 100 to 1000 | O=C(O)Cn1nc(-c2ccncc2)cc1NC(=O)[C@H](Cc1ccccc1)NCc1cscn1 [Example 26, (S)-2-(5-(3-Phenyl-2-(thiazol-4-ylmethylamino)propanamido)-3-(pyridin-4-yl)-1H-pyrazol-1-yl)acetic acid]
23 | 100 to 1000 | O=C(Nc1cc(-c2ccncc2)no1)[C@H](Cc1ccccc1)NCc1cscn1 [Example 3.3, (S)-3-Phenyl-N-(3-(pyridin-4-yl)isoxazol-5-yl)-2-(thiazol-4-ylmethylamino)propanamide]
24 | 100 to 1000 | O=C([C@H](Cc1ccccc1)NCc1ccccn1)N1CCc2ccc(-c3ccncc3)cc21 [Example 50, (S)-3-Phenyl-2-(pyridin-2-ylmethylamino)-1-(6-(pyridin-4-yl)indolin-1-yl)propan-1-one TFA Salt]
25 | 100 to 1000 | Nc1nc(CN[C@@H](Cc2ccccc2)C(=O)Nc2nnc(-c3ccncc3)s2)cs1 [Example 1.3, (S)-2-((2-aminothiazol-4-yl)methylamino)-3-phenyl-N-(5-(pyridin-4-yl)-1,3,4-thiadiazol-2-yl)propanamide]
26 | 50 to 100 | C[C@H](N[C@@H](Cc1ccccc1)C(=O)Nc1nnc(-c2ccncc2)s1)c1cscn1 [Example 1.4]
27 | 100 to 1000 | O=C(Nc1cc(-c2ccncc2)cc(C(F)(F)C(=O)O)c1)[C@H](Cc1ccccc1)NCc1cscn1 [Example 52, (S)-2,2-difluoro-2-(3-(3-phenyl-2-(thiazol-4-ylmethylamino)propanamido)-5-(pyridin-4-yl)phenyl)acetic acid]
28 | 100 to 1000 | O=C(Nc1cccc(-c2ccncc2)c1)[C@H](Cc1ccccc1)NCCC1CCOCC1 [Example 34.1, (S)-3-Phenyl-N-(3-(pyridin-4-yl)phenyl)-2-(2-(tetrahydro-2H-pyran-4-yl)ethylamino)propanamide]
29 | 100 to 1000 | COc1ncc(-c2ccn(C)n2)cc1NC(=O)[C@H](Cc1ccccc1)NC1(c2ccccn2)CC1 [Example 19.1]
30 | 100 to 1000 | COC(=O)c1cc(-c2ccncc2)cc2c1CCN2C(=O)[C@H](Cc1ccccc1)N[C@@H](C)c1ccccn1 [Example 54.2, Methyl 1-((S)-3-phenyl-2-((S)-1-(pyridin-2-yl)ethylamino)propanoyl)-6-(pyridin-4-yl)indoline-4-carboxylate TFA salt]
31 | 1000 to 10000 | N[C@@H](Cc1ccccc1)C(=O)Nc1cc(-c2ccncc2)c[nH]c1=O [Example 25.2, (S)-2-amino-N-(2-oxo-5-(pyridin-4-yl)-1,2-dihydropyridin-3-yl)-3-phenylpropanamide diTFA]
32 | 100 to 1000 | COc1ncc(-c2ccn(C)n2)cc1NC(=O)[C@H](Cc1ccccc1)NC1(c2cscn2)CC1 [Example 19.2]
33 | < 50 | CCn1nc(-c2ccnc(NC)c2)cc1NC(=O)[C@H](Cc1ccc(F)cc1)NCc1cscn1 [Example 31.1, (2S)—N-(1-Ethyl-3-(2-(methylamino)pyridin-4-yl)-1H-pyrazol-5-yl)-3-(4-fluorophenyl)-2-(thiazol-4-ylmethylamino)propanamide]
34 | 50 to 100 | Cc1cc(-c2ccc3c(c2)N(C(=O)[C@H](Cc2ccccc2)NCc2cscn2)CC3)ccn1 [Example 56, (2S)-1-(6-(2-Methylpyridin-4-yl)indolin-1-yl)-3-phenyl-2-(thiazol-4-ylmethylamino)propan-1-one]
35 | 1000 to 10000 | N[C@@H](Cc1ccccc1)C(=O)Nc1cccc(-c2ccncc2)c1 [Example 34.1.D, (S)-2-Amino-3-phenyl-N-(3-(pyridin-4-yl)phenyl)propanamide]
